Data published in patent US8901138B2, “Sulfoximine substituted quinazolines for pharmaceutical compositions” (Boehringer Ingelheim International GmbH, priority 2012, dated 2014).

Legend:
MNK2a = biological target: T1, MNK2a (Homo sapiens, UniProt Q9HBH9); experiment: MNK2a in vitro kinase assay (assay 1), ADP-Glo; format: biochemical; settings: preactivated GST-MNK2a, 20 μM ATP, read-out: MNK2 IC50
T1 construct: made in house
How it was run: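 Preactivated GST-MNK2a (10 nM) with eIF4E peptide (25 μM) and ATP (20 μM) in HEPES/DTT/MgCl2 buffer, 90 min at room temperature, final DMSO <3%. ADP formed read by ADP-Glo luminescence and normalised to vehicle and 20 μM reference-inhibitor controls; IC50 from dose-response curves.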

MNK1a = MNK1a (Homo sapiens, UniProt Q9BUB5); experiment: MNK1 in vitro kinase assay (assay 2), Z'-LYTE; format: biochemical; settings: for inhibition at 1 µM: compound concentration of 1 μM; for IC50: pre-activated GST-MNK1a
Text: B. MNK1 In Vitro Kinase Assay (Assay 2)
MNK1 Data can be obtained from the MNK1 Z′-LYTE® assay. The MNK1 Z′-LYTE® screening protocol and assay conditions are also described on www.invitrogen.com.
The assay is described as follows:
The Z′-LYTE® biochemical assay employs a fluorescence-based, coupled-enzyme format and is based on the differential sensitivity of phosphorylated and non-phosphorylated peptides to proteolytic cleavage. The peptide substrate is labeled with two fluorophores—one at each end—that make up a FRET pair.
In the primary reaction, the kinase transfers the gamma-phosphate of ATP to a single tyrosine, serine or threonine residue in a synthetic FRET-peptide. In the secondary reaction, a site-specific protease recognizes and cleaves non-phosphorylated FRET-peptides. Phosphorylation of FRET-peptides suppresses cleavage by the Development Reagent. Cleavage disrupts FRET between the donor (i.e., coumarin) and acceptor (i.e., fluorescein) fluorophores on the FRET-peptide, whereas uncleaved, phosphorylated FRET-peptides maintain FRET. A ratiometric method, which calculates the ratio (the Emission Ratio) of donor emission to acceptor emission after excitation of the donor fluorophore at 400 nm, is used to quantitate reaction progress, as shown in the equation below. Emission Ratio=Coumarin Emission(445 nm)/Fluorescein Emission(520 nm)
ASSAY SETUP: The inhibition of kinase activity of MNK1a was assessed using pre-activated GST-MNK1a. The 2×MKNK1 (MNK1) mixture is prepared in 50 mM HEPES pH 7.5, 0.01% BRIJ-35, 10 mM MgCl2, 4 mM MnCl2, 1 mM EGTA, 2 mM DTT. The final 10 μL Kinase Reaction consists of 13.5-54 ng MKNK1 (MNK1) and 2 μM Ser/Thr 07 in 50 mM HEPES pH 7.5, 0.01% BRIJ-35, 10 mM MgCl2, 2 mM MnCl2, 1 mM EGTA, 1 mM DTT. After the 1 hour Kinase Reaction incubation, 5 μL of a 1:32768 dilution of Development Reagent A is added.
The Test Compounds are screened in 1% DMSO (final) in the well.
All Peptide/Kinase Mixtures are diluted to a 2× working concentration in the MNK1 Kinase Buffer.
All ATP Solutions are diluted to a 4× working concentration in Kinase Buffer (50 mM HEPES pH 7.5, 0.01% BRIJ-35, 10 mM MgCl2, 1 mM EGTA).
Development Reagent Solution:
The Development Reagent is diluted in Development Buffer
Bar-coded Corning, low volume NBS, 384-well plate (Corning Cat. #3676)
1. 2.5 μL-4× Test Compound
2. 5 μL-2× Peptide/Kinase Mixture
5. 60-minute Kinase Reaction incubation at room temperature
6. 5 μL-Development Reagent Solution
8. 60-minute Development Reaction incubation at room temperature
9. Read on fluorescence plate reader and analyze the data
The following equations are used for each set of data points: […]
Correction for Background Fluorescence: FSample−FITCFl Ctl
Emission Ratio (using values corrected for background fluorescence):Coumarin
Emission (445 nm)/Fluorescein Emission (520 nm)
% Phosphorylation (% Phos): 1−((Emission Ratio×F100%)−C100%)/((C0%−C100%)+[Emission Ratio×(F100%−F0%)])*100 % Inhibition: 1−(% PhosSample/% Phos0% Inhibition Ctl)*100 FI=Fluorescence Intensity C100%=Average Coumarin emission signal of the 100% Phos. Control C0%=Average Coumarin emission signal of the 0% Phos. Control F100%=Average Fluorescein emission signal of the 100% Phos. Control F0%=Average Fluorescein emission signal of the 0% Phos. Control Graphing Software
SelectScreen® Kinase Profiling Service uses XLfit from IDBS. The dose response curve is curve fit to model number 205 (sigmoidal dose-response model).

Sequence of MNK1a (Q9BUB5 1-424 isoform Q9BUB5-2): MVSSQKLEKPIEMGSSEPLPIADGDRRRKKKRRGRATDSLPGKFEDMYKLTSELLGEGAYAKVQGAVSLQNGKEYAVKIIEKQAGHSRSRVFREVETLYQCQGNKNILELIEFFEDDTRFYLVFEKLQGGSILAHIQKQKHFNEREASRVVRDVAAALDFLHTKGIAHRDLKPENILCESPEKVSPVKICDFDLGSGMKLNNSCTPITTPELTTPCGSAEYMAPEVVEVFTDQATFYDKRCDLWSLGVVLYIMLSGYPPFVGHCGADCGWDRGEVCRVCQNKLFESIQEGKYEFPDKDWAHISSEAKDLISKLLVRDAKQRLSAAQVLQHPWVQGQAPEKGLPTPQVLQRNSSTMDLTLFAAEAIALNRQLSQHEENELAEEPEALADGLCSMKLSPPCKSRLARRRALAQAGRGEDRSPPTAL
T1 sequence (Q9HBH9 whole entry): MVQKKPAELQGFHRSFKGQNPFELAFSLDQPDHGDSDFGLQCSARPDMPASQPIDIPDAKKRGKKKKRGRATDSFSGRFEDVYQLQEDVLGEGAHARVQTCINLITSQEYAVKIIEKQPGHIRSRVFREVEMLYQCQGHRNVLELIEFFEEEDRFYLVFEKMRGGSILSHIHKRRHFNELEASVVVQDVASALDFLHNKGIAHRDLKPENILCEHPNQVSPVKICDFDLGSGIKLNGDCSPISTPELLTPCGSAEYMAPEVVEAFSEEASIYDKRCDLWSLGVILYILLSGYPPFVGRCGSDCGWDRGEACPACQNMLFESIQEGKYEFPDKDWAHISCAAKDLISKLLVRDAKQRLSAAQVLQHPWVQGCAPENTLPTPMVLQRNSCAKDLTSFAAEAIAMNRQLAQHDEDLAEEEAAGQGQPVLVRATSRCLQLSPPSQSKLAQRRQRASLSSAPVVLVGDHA

| SMILES | IC50 (MNK2a) [nM] | inhibition at 1 µM (MNK1a) [%] | IC50 (MNK1a) [nM] |
| --- | --- | --- | --- |
| CS(C)(=O)=Nc1cc(F)c2c(Nc3ccc(F)cc3O[C@H]3CC[C@@](C)(O)CC3)ncnc2c1 [Example 2.35] | 4 | 95 | – |
| Cc1cc(N=S(C)(C)=O)cc2ncnc(Nc3ccc(F)cc3O[C@@H]3CCCN(CCO)C3)c12 [Example 6.9] | 5 | 95 | – |
| CCOc1cc(N=S(C)(C)=O)cc2ncnc(Nc3ccc(F)cc3O[C@H]3CCOC3)c12 [Example 5.1] | 2 | 101 | – |
| Cc1cc(N=S(C)(C)=O)cc2ncnc(Nc3ccc(F)cc3O[C@@H]3CCN(CCO)C3)c12 [Example 6.17] | 23 | 79 | – |
| CO[C@H]1CC[C@H](Oc2cc(F)ccc2Nc2ncnc3cc(N=S4(=O)CCNCC4)cc(C)c23)CC1 [Example 3.10] | 8 | 88 | – |
| Cc1cc(N=S(C)(C)=O)cc2ncnc(Nc3ccc(F)cc3O[C@@H]3CC[C@@H]4OCC[C@@H]43)c12 [Example 2.124] | 4 | 83 | – |
| CS(C)(=O)=Nc1cc(F)c2c(Nc3cccnc3O[C@@H]3CCCNC3)ncnc2c1 [Example 3.1] | 111 | 50 | – |
| CS(C)(=O)=Nc1cc(Cl)c2c(Nc3ccc(F)cc3O[C@H]3CC[C@H](O)CC3)ncnc2c1 [Example 1.17] | 2 | – | 39 |
| CS(C)(=O)=Nc1cc(F)c2c(Nc3cccnc3O[C@H]3CC[C@H](N)CC3)ncnc2c1 [Example 3.5] | 5 | 101 | – |
| CS(C)(=O)=Nc1cc(F)c2c(Nc3cccnc3O[C@@H]3CCCN(CCO)C3)ncnc2c1 [Example 6.11] | 31 | 72 | – |
| Cc1cc(N=S(C)(C)=O)cc2ncnc(Nc3ccc(F)cc3O[C@@H]3CCCN(C(=O)OC(C)(C)C)C3)c12 [Example 2.27] | 46 | 78 | – |
| CO[C@@H]1CO[C@H]2[C@@H]1OC[C@H]2Oc1cc(F)ccc1Nc1ncnc2cc(N=S(C)(C)=O)cc(C)c12 [Example 2.34] | 1 | – | 17 |
| Cc1cc(N=S(C)(C)=O)cc2ncnc(Nc3ccc(F)cc3O[C@@H]3CO[C@H]4[C@@H]3OC[C@@H]4F)c12 [Example 2.116] | 2 | 100 | – |
| Cc1cc(N=S(C)(C)=O)cc2ncnc(Nc3ccc(F)cc3O[C@@H]3CCC[C@H]3O)c12 [Example 7.16] | 1 | – | 25 |
| Cc1cc(N=S2(=O)CCCC2)cc2ncnc(Nc3ccc(F)cc3O[C@@H]3CCN(S(C)(=O)=O)C3)c12 [Example 6.18] | 1 | 98 | – |
| CS(C)(=O)=Nc1cc(N2CCC2)c2c(Nc3ccc(F)cc3O[C@H]3CCOC3)ncnc2c1 [Example 1.19] | 106 | 42 | – |
| Cc1cc(N=S(C)(=O)C(C)C)cc2ncnc(Nc3ccc(F)cc3O[C@@H]3CO[C@@H]4CCO[C@@H]43)c12 (stereo partly shown) [Example 2.109] | 2 | 100 | – |
| Cc1cc(N=S2(=O)CCC(O)CC2)cc2ncnc(Nc3ccc(F)cc3O[C@@H]3CO[C@@H]4CCO[C@@H]43)c12 (stereo partly shown) [Example 2.94] | 1 | 98 | – |
| Cc1cc(N=S(C)(C)=O)cc2ncnc(Nc3ccc(F)cc3O[C@@H]3CO[C@H]4[C@@H]3OC[C@@H]4C#N)c12 [Example 2.61] | 2 | 98 | – |
| Cc1cc(N=S(C)(=O)c2ccccn2)cc2ncnc(Nc3ccc(F)cc3O[C@@H]3CO[C@@H]4CCO[C@@H]43)c12 (stereo partly shown) [Example 2.11] | 6 | 92 | – |
